In BigSolDB 2.1:

c1ccc2oc(CSCc3nc4ccccc4o3)nc2c1
Settings | solubility (mole fraction)
in chlorobenzene, 274.85 K | 0.00424
in chlorobenzene, 278.15 K | 0.00514
in chlorobenzene, 283.15 K | 0.00684
in chlorobenzene, 287.95 K | 0.00889
in chlorobenzene, 292.95 K | 0.0119
in chlorobenzene, 298.35 K | 0.0157
in chlorobenzene, 303.25 K | 0.0205
in chlorobenzene, 308.15 K | 0.0262
in chlorobenzene, 313.25 K | 0.0341
in chlorobenzene, 318.05 K | 0.0427
in ethanol, 274.15 K | 0.00741
in ethanol, 278.15 K | 0.00978
in ethanol, 283.15 K | 0.014
in ethanol, 288.35 K | 0.02
in ethanol, 291.15 K | 0.0236
in ethanol, 293.15 K | 0.0279
in ethanol, 295.55 K | 0.0318
in ethanol, 298.15 K | 0.0377
in ethanol, 300.25 K | 0.0435
in ethanol, 302.95 K | 0.052
in ethanol, 305.15 K | 0.0578
in ethanol, 308.15 K | 0.0704
in isopropanol, 278.15 K | 0.00231
in isopropanol, 283.15 K | 0.00333
in isopropanol, 289.15 K | 0.00523
in isopropanol, 293.15 K | 0.00703
in isopropanol, 298.15 K | 0.0105
in isopropanol, 303.15 K | 0.014
in isopropanol, 308.15 K | 0.0194
in isopropanol, 313.15 K | 0.0268
in isopropanol, 318.15 K | 0.0372
in isopropanol, 323.15 K | 0.051
in n-butanol, 278.35 K | 0.00349
in n-butanol, 283.15 K | 0.00494
in n-butanol, 288.15 K | 0.00698
in n-butanol, 293.25 K | 0.00986
in n-butanol, 298.15 K | 0.0142
in n-butanol, 303.25 K | 0.0199
in n-butanol, 308.15 K | 0.0271
in n-butanol, 313.25 K | 0.0372
in n-butanol, 318.15 K | 0.0516
in n-butanol, 323.15 K | 0.0679
in o-xylene, 273.35 K | 0.000297
in o-xylene, 278.15 K | 0.000431
in o-xylene, 283.15 K | 0.00064
in o-xylene, 287.95 K | 0.000899
in o-xylene, 293.05 K | 0.00138
in o-xylene, 298.15 K | 0.00203
in o-xylene, 303.15 K | 0.00305
in o-xylene, 308.35 K | 0.00443
in o-xylene, 313.15 K | 0.00656
in o-xylene, 318.15 K | 0.00904
in toluene, 274.15 K | 0.000608
in toluene, 278.15 K | 0.000971
in toluene, 283.15 K | 0.00176
in toluene, 288.15 K | 0.00306
in toluene, 293.15 K | 0.00522
in toluene, 298.15 K | 0.00861
in toluene, 303.15 K | 0.0139
in toluene, 308.15 K | 0.024
in toluene, 313.25 K | 0.0292
in toluene, 318.15 K | 0.0413
